Marks after values point to notes of the source that are not given here.
Assays:
[1] = tested on: human triple-negative breast cancer MDA-MB-231 xenografts; test: Inhibitory effect on human triple-negative breast cancer MDA-MB-231 xenografts in mice; type: in vivo, human cells in female NOD/SCID mice; details: dose 400 mg/kg po
Protocol: Experimental animal: female NOD/SCID mice provided by Beijing Vital River Laboratory Animal Technology Co., Ltd.
Experimental method: Female NOD/SCID mice were subcutaneously inoculated with human triple-negative breast cancer MDA-MB-231 cells. 7 days after inoculation, the mice were divided into 7 groups when the mean tumor volume was 120 to 130 mm^3 (d0), namely, the vehicle control group (5% glucose injection), the 6 mg/kg of A1 group, the 3 mg/kg or 6 mg/kg of A1+400 mg/kg of capecitabine for injection (CAP) group, the 6 mg/kg of paclitaxel injection (Taxol) group, the 6 mg/kg of Taxol+400 mg/kg of CAP group, and the 400 mg/kg of CAP group, respectively. The CAP for injection was administered intragastrically twice a week and the other drugs were administered intravenously twice a week for a total of 7 times (d0, d3, d7, d10, d14, d17, and d21). The experiment was terminated at d28. During the experiment, the body weight and tumor volume of animals were monitored twice a week, and the tumor volume (TV) was calculated. At the end of the experiment, the tumor weight was weighed and the tumor weight inhibition rate was calculated.
Methods for drug preparation: CAP was prepared by diluting with water for injection to the desired concentration, and the rest of drugs were prepared according to the method described in Example 3.

[2] = tested on: prostate cancer RM-1 allografts; test: Inhibitory effect of combination with DDP on prostate cancer RM-1 allografts in mice; type: in vivo, mouse RM-1 cells in female C57/BL6 mice
Protocol: Experimental animal: female C57/BL6 mice provided by Beijing Vital River Laboratory Animal Technology Co., Ltd.
Experimental method: Female C57/BL6 mice were subcutaneously inoculated with mouse prostate RM-1 cells. Six days after inoculation, the mice were grouped when the mean tumor volume was about 140 mm^3 (d0). Drugs were administered intravenously (except that DDP was administered intraperitoneally) at d0, d2, d4, d6, d8, and d10 for a total of 6 times. The experiment was terminated at d15. In the A1 high-dose group, A1 was administered at a dose of 12 mg/kg for the first three times and 6 mg/kg for the last three times, with a cumulative dose of 54 mg/kg; in the A1 low-dose group, A1 was administered at a dose of 6 mg/kg for six times, with a cumulative dose of 36 mg/kg; in the DPP group, DPP was administered at a dose of 1 mg/kg for six times, with a cumulative dose of 6 mg/kg; in the vehicle control group, 5% glucose injection (at an equal volume to A1 high-dose group) was administered; in the A1+DDP-1 group, A1 was administered at a dose of 6 mg/kg for six times, with a cumulative dose of 36 mg/kg, and DPP was administered at a dose of 1 mg/kg for six times, with a cumulative dose of 6 mg/kg; in the A1+DDP-2 group, A1 was administered at a dose of 12 mg/kg for the first three times and 6 mg/kg for the last three times with a cumulative dose of 54 mg/kg, and DPP was administered at a dose of 1 mg/kg for six times, with a cumulative dose of 6 mg/kg. During the experiment, the body weight and tumor volume of animals were monitored three times a week, and the values of the tumor volume (TV), relative tumor volume (RTV), and relative tumor proliferation rate (T/C) were calculated.
Methods for drug preparation: A1: the paclitaxel cationic liposome was dissolved by adding water for injection, and then diluted with glucose and sodium chloride injection to the desired concentration; DDP: the DDP powder was dissolved in 5% glucose injection and subjected to ultrasound to formulate the desired concentration.

[3] = tested on: human pancreatic cancer CFPAC-1 xenografts; test: Inhibitory effect on human pancreatic cancer CFPAC-1 xenografts in mice; type: in vivo, human cells in female Nu/Nu nude mice
Protocol: Experimental animal: female Nu/Nu nude mice provided by Beijing Vital River Laboratory Animal Technology Co., Ltd.
Experimental method: Female Nu/Nu nude mice were subcutaneously inoculated with human pancreatic cancer CFPAC-1 cells. 5 days after inoculation, the mice were divided into 7 groups when the mean tumor volume was 228 mm^3 (d0), namely, the vehicle control group (5% glucose injection), the 6 mg/kg of A1 group, the 3 mg/kg or 6 mg/kg of A1+20 mg/kg of gemcitabine for injection (GEM) group, the 6 mg/kg of paclitaxel injection (Taxol) group, the 6 mg/kg of Taxol+20 mg/kg of GEM group, and the 20 mg/kg of GEM group, respectively. There were 10 mice in each group. Drugs were administered intravenously (except that the GEM was administered intraperitoneally for 5 times (at the first five time points)) at d0, d3, d6, d9, d13, and d16 for a total of 6 times. After the last administration, the mice were further observed for 11 d (i.e. d27) and the experiment was terminated. During the experiment, the body weight and tumor volume of animals were monitored twice a week, and the tumor volume (TV) was calculated. At the end of the experiment, the tumor weight was weighed and the tumor weight inhibition rate was calculated.
Methods for drug preparation: A1 was prepared using the same method as in Example 2. The gemcitabine for injection was dissolved in saline to achieve the desired concentration. Paclitaxel injection (Taxol) was diluted with saline to the desired concentration.

SMILES: CCCCCOC(=O)Nc1nc(=O)n([C@@H]2O[C@H](C)[C@@H](O)[C@H]2O)cc1F [CAP, capecitabine]
- Tumor Volume d20 ([1]; 7 times, x ± sd, n = 10): 1708.3 ± 564.8** mm^3
- Tumor Volume d0 ([1]; d0 at grouping, before dosing, x ± sd, n = 10): 124.5 ± 19.4 mm^3
- Tumor Weight Inhibition Rate ([1]; end of experiment (d28)): 33.4%
- Tumor Weight ([1]; end of experiment (d28), x ± sd, n = 10): 1.3679 ± 0.2649 g

SMILES: N.N.[Cl][Pt][Cl] [DDP, Cisplatin]
- Tumor Volume d15 ([2]; cumulative dose 6 mg/kg (1 mg/kg x6) i.p., d0-d10, x ± sd, n = 9): 3494.6 ± 710.9 mm^3
- Tumor Volume d0 ([2]; cumulative dose 6 mg/kg (1 mg/kg x6) i.p., d0 at grouping, before dosing, x ± sd, n = 9): 145.1 ± 22.8 mm^3
- T/C ([2]; cumulative dose 6 mg/kg i.p., d15): 77.1%
- RTV ([2]; cumulative dose 6 mg/kg i.p., d15, x ± sd, n = 9): 24.9 ± 7.6

SMILES: Nc1ccn([C@@H]2O[C@H](CO)[C@@H](O)C2(F)F)c(=O)n1 [GME, gemcitabine]
- Tumor Volume d27 ([3]; dose 20 mg/kg ip x5, x ± sd, n = 10): 720.9 ± 152.8** mm^3
- Tumor Volume d0 ([3]; dose 20 mg/kg ip, d0 at grouping, before dosing, x ± sd, n = 10): 227.3 ± 52.8 mm^3
- Tumor Weight Inhibition Rate ([3]; dose 20 mg/kg ip, end of experiment (d27)): 48.4%
- Tumor Weight ([3]; dose 20 mg/kg ip, end of experiment (d27), x ± sd, n = 10): 0.8238 ± 0.3253 g

From patent US20260216074A1, “USE OF PACLITAXEL CATIONIC LIPOSOME IN TREATING TUMORS” (CSPC ZHONGQI PHARMACEUTICAL TECHNOLOGY (SHIJIAZHUANG) CO., …, priority 2023, published 2026)
